From paper PMC6136390, “Coptisine-induced inhibition of Helicobacter pylori: elucidation of specific mechanisms by probing urease active site and its maturation process” (Journal of Enzyme Inhibition and Medicinal Chemistry, 2018)
Converted amounts (≈) assume the structure as drawn. Like-named read-outs stand apart in the source and are kept apart here.

Tests used:
[1] = system: H. pylori strains; assay: Minimal inhibitory concentration assay (agar dilution); assay type: cell-based, Helicobacter pylori; conditions: Helicobacter pylori, NCTC11637; standard strain NCTC 11637, pH 7.2; read-out: MIC
Source text: Fourteen H. pylori strains were used in this study. NCTC 11637 and NCTC 26695 strains were purchased from American Type Culture Collection. Sydney Strain-1 (SS1) was kindly provided by Prof. Richard Ferrero of Monash University, Australia. Clinical isolate ICDC 111001 was provided by Prof. Zhang Jian-zhong of the Chinese Center for Disease Control and Prevention, China. Ten clinical isolates (Hp1868, Hp1869, Hp1870, Hp1871, Hp1872, Hp1873, Hp1874, Hp1875, Hp1876, and Hp1877) were obtained from Renji Hospital, Shanghai Jiaotong University.
(§1) All strains were cultured in Columbia agar base containing 7% sheep blood at 37 °C in a micro-aerophilic environment (5% O2, 10% CO2, and 85% N2). After 3 days, H. pylori was scraped and suspended in phosphate buffered saline (PBS). Turbidimetry was employed to adjust the concentrations of different H. pylori strains (turbidity equivalent to 1.0 McFarland standard). Crude HPU was obtained according to the method described by Matsubara et al.[42]
In this study, different concentrations (12.5, 25, 50, and 100 μg/mL) of berberine, palmatine, epiberberine, jatrorrhizine, and coptisine were used to evaluate antimicrobial activity against the standard H. pylori strain NCTC 11637. The agar dilution method was then used to analyse the antibacterial effects of coptisine against two H. pylori standard strains (SS1 and NCTC 26695) and eleven clinical isolates (ICDC 111001, HP 1868, HP 1869, HP 1870, HP 1871, HP 1872, HP 1873, HP 1874, HP 1875, HP 1876, and HP 1877). In this assay, 100 μL of H. pylori suspension (McFarland = 1.0) was added to the test compound-containing or DMSO-containing (control) Columbia blood agar plate. CLR and MET were used as positive controls in this experiment. Minimum inhibitory concentration (MIC) was defined as the lowest concentration at which no strain growth was observed by visual examination after 3 days. This experiment was repeated twice.

[2] = system: H. pylori cells (SS1); assay: pH shock experiment in vivo (urea-dependent survival of H. pylori); assay type: cell-based, Helicobacter pylori; conditions: 30 min; for surviving bacteria, pH =1: 100 mM HCl pH 1, 5 mM urea; for surviving bacteria, pH =7.2: PBS pH 7.2, 5 mM urea; for inhibition at 100 µM: Helicobacter pylori, 0.5 h
Experimental: H. pylori cells (SS1) were harvested, and the concentration was adjusted to Mc = 4 with saline. Then, bacterial samples were mixed with AHA (positive control, 5 mM) or one of the five alkaloids from Rhizoma Coptidis (coptisine, berberine, jatrorrhizine, epiberberine, and palmatine) in 100 mM HCl (pH = 1) or PBS (pH = 7.2) at 37 °C with or without 5 mM urea. After 30 min of incubation, bacteria were collected by centrifugation at 2000g for 10 min and resuspended in the same volume of PBS. A dilution series (1:1–1:10000) was made from the samples, and the dilutions were plated on solid agar for 5 days to form single colony. Samples from urea-free wells were used as controls. Results are expressed as CFU/mL; the experiment was repeated in triplicate. Inhibition rate was calculated using the following equation: Inhibition rate = (Urea group bacterial mean − X group bacterial mean)/Urea group bacterial mean ×100%, where X represents each experimental group.

[3] = target: T1, H. pylori urease (HPU) (Helicobacter pylori, UniProt P69996); assay: Urease inhibition assay in vitro (modified Berthelot method); assay type: biochemical; conditions: 20 min pre-incubation at 37 °C, 150 mM urea, pH 7.5; read-out: IC50 for HPU
T1 construct: Crude HPU was obtained according to the method described by Matsubara et al; endogenous in cells; host or cells: cultured Helicobacter pylori (strain not specified)
T1 sequence (P69996 whole entry): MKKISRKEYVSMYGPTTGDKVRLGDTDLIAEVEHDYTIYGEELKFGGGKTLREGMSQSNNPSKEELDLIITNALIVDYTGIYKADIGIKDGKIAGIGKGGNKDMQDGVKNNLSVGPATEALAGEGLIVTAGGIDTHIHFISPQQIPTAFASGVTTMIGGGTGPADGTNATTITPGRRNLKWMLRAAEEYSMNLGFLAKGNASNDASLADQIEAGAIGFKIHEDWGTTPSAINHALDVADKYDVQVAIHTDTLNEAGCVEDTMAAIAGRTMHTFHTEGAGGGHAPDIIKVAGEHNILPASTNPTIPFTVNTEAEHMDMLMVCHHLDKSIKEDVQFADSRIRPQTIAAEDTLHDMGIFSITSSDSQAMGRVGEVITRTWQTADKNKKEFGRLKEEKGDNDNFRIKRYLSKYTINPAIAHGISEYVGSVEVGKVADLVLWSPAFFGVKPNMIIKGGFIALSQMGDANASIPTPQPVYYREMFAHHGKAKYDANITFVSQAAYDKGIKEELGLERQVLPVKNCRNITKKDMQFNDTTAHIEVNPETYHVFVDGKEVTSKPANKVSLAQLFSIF
T1 sequence (P14916 whole entry, further chain): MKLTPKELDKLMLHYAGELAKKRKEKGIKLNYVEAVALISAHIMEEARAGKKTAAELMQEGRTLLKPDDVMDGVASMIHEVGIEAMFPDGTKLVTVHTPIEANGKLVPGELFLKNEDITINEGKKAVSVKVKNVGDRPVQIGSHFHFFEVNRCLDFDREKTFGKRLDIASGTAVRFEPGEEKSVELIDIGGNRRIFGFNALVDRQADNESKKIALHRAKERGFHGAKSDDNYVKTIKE
Experimental: as §1
This assay was performed using the modified Berthelot method (phenol-hypochlorite) in 96 well plates. At the beginning of each reaction, different concentrations of urease solution and 150 mM urea as a substrate were mixed in 20 mM HEPES buffer (pH 7.5) at 37 °C. After a 20-min reaction, urease activity was tested by measuring the concentration of ammonia produced by the reaction at 595 nm using the microplate reader (Thermo Fisher Multiskan FC, Instruments, Inc., USA) at ambient temperature. […] One unit (U) of urease activity was defined as the amount of urease required to catalyse 1 μmol urea per min. […]
Coptisine’s ability to inhibit urease activity was determined by measuring amounts of ammonia produced using the modified Berthelot method described above. […] Residual activity (RA %) for each assay was calculated using the following equation: RA % = (activity with inhibitors/activity without inhibitors) × 100%. […]

[4] = target: T2, jack bean urease (JBU) (Canavalia ensiformis, UniProt P07374); assay: as above; assay type: biochemical; conditions: 20 min pre-incubation at 37 °C, 150 mM urea, pH 7.5; read-out: IC50 for JBU
T2 construct: purchased Sigma Aldrich (Steineheim, Germany) type III (catalogue number not given)
T2 sequence (P07374 whole entry, looked up): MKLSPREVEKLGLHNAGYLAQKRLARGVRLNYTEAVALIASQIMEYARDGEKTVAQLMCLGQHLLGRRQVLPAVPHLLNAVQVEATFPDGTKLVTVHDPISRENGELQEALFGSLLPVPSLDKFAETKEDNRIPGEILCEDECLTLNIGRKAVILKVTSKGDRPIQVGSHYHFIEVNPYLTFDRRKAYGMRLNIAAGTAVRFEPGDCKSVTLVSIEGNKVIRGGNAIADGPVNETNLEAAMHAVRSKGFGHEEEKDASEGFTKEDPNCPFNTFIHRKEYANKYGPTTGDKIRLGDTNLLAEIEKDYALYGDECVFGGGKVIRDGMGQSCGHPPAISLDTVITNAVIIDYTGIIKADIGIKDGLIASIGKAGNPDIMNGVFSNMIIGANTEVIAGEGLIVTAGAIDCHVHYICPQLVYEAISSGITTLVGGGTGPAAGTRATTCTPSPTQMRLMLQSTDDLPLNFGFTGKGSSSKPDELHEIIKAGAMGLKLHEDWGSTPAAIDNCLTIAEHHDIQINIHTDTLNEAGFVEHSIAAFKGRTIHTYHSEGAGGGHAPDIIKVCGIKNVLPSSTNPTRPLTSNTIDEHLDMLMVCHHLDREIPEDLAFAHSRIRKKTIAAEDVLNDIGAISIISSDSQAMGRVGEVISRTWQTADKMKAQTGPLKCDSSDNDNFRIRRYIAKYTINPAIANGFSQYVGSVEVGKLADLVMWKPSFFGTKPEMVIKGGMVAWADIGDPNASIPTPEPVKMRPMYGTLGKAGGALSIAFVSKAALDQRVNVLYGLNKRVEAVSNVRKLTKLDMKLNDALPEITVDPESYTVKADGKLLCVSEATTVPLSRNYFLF
Experimental: This assay was performed using the modified Berthelot method (phenol-hypochlorite) in 96 well plates. At the beginning of each reaction, different concentrations of urease solution and 150 mM urea as a substrate were mixed in 20 mM HEPES buffer (pH 7.5) at 37 °C. After a 20-min reaction, urease activity was tested by measuring the concentration of ammonia produced by the reaction at 595 nm using the microplate reader (Thermo Fisher Multiskan FC, Instruments, Inc., USA) at ambient temperature. […] One unit (U) of urease activity was defined as the amount of urease required to catalyse 1 μmol urea per min. These experiments were repeated in triplicate.
Coptisine’s ability to inhibit urease activity was determined by measuring amounts of ammonia produced using the modified Berthelot method described above. The assay mixture, which contained 200 μL of enzyme and 200 μL of coptisine solution (0.16–2.51 mM) in 200 μL of 20 mM HEPES buffer (pH 7.5), was incubated for 20 min at 37 °C in 96-well plates. The reaction was then initiated by adding urea solution (150 mM) to determine residual urease activity. AHA was used as a standard urease inhibitor. […] Residual activity (RA %) for each assay was calculated using the following equation: RA % = (activity with inhibitors/activity without inhibitors) × 100%. […]

[5] = system: urease; parameters: method as in PMID 26669678; conditions: cited from earlier work
[6] = 100 μM compound, pH 1, 5 mM urea
[7] = 100 μM compound, pH 7.2, 5 mM urea
[8] = 100 μM compound, pH 1, 5 mM urea, read-out: Inhibition rate, pH =1
[9] = 100 μM compound, pH 7.2, 5 mM urea, read-out: Inhibition rate, pH =7.2

| Compound | MIC [1] [mg/L] | surviving bacteria, pH =1 ([2]; 100 μM compound) [CFU/mL] | surviving bacteria, pH =7.2 ([2]; 100 μM compound) | Inhibition rate, pH =1 [2, 6] | Inhibition rate, pH =7.2 [2, 7] | inhibition at 100 µM [2, 8] [%] | inhibition at 100 µM [2, 9] [%] | surviving bacteria, pH =1 ([2]; 5 mM compound) [CFU/mL] | surviving bacteria, pH =7.2 ([2]; 5 mM compound) | Inhibition rate, pH =1 ([2]; 5 mM compound, pH 1, 5 mM urea) [%] | Inhibition rate, pH =7.2 ([2]; 5 mM compound, pH 7.2, 5 mM urea) [%] | IC50 [3] [µM] | IC50 [4] [µM] | inhibitory activity against urease [5] |
| --- | --- | --- | --- | --- | --- | --- | --- | --- | --- | --- | --- | --- | --- | --- |
| COc1cc2c(cc1OC)-c1cc3ccc4c(c3c[n+]1CC2)OCO4 [Epiberberine] | 100 | 481 ± 92 | 1.3 ± 0.3 ×10^4 CFU/mL | failed to inhibit | failed to inhibit | 0 | 0 | – | – | – | – | – | – | – |
| COc1cc2c(cc1O)CC[n+]1cc3c(OC)c(OC)ccc3cc1-2 [Jatrorrhizine] | 100 | 552 ± 98 | 1.2 ± 0.3 ×10^4 CFU/mL | failed to inhibit | failed to inhibit | 0 | 0 | – | – | – | – | – | – | – |
| Cc1ncc([N+](=O)[O-])n1CCO [MET, Metronidazole, reference compound] | 0.5 (≈ 2.92 µM) | – | – | – | – | – | – | – | – | – | – | – | – | – |
| CC[C@H]1OC(=O)[C@H](C)[C@@H](O[C@H]2C[C@@](C)(OC)[C@@H](O)[C@H](C)O2)[C@H](C)[C@@H](O[C@@H]2O[C@H](C)C[C@H](N(C)C)[C@H]2O)[C@](C)(OC)C[C@@H](C)C(=O)[C@H](C)[C@@H](O)[C@]1(C)O [CLR, Clarithromycin, reference compound] | 0.02 (≈ 0.0267 µM) | – | – | – | – | – | – | – | – | – | – | – | – | – |
| COc1cc2c(cc1OC)-c1cc3ccc(OC)c(OC)c3c[n+]1CC2 [Palmatine] | 100 | 628 ± 110 | 1.2 ± 0.4 ×10^4 CFU/mL | failed to inhibit | failed to inhibit | 0 | 0 | – | – | – | – | – | – | – |
| CC(=O)NO [Acetohydroxamic acid, reference compound] | – | – | – | – | – | – | – | 0 ± 0 | 1.7 ± 0.4 ×10^4 CFU/mL | 100 | 0 | 90 ± 10 | 20 ± 10 | – |
| COc1ccc2cc3[n+](cc2c1OC)CCc1cc2c(cc1-3)OCO2 [Berberine] | 50 | 587 ± 103 | 1.2 ± 0.4 ×10^4 CFU/mL | failed to inhibit | failed to inhibit | 0 | 0 | – | – | – | – | – | – | fails to show any inhibitory activity |
